Tests used:
[1] = Dark toxicity against mouse Colon 26 cells assessed as cell survival fraction incubated for 1 hr in dark measured after 48 hrs by SRB assay; assay type: cell-based; settings: read-out: LD50
[2] = Therapeutic index, ratio of LD50 for dark toxicity against mouse Colon 26 cells to EC50 for phototoxicity against mouse Colon 26 cells at 5 Jcm'-2 of irradiation with 700 +/- 2 nm light; assay type: cell-based; settings: read-out: Ratio LD50/EC50
[3] = Therapeutic index, ratio of LD50 for dark toxicity against mouse Colon 26 cells to EC50 for phototoxicity against mouse Colon 26 cells at 10 Jcm'-2 of irradiation with 700 +/- 2 nm light; assay type: cell-based; settings: read-out: Ratio LD50/EC50
[4] = Drug localization in mitochondria of mouse Colon 26 cells assessed as bright detail similarity scores at 0.2 uM incubated for 15 mins in presence of MTG by flow cytometry; assay type: ADME; settings: colon 26, 0.25 h
[5] = Drug localization in mitochondria of human HUT78 cells assessed as bright detail similarity scores at 0.2 uM incubated for 15 mins in presence of MTG by flow cytometry; assay type: ADME; settings: hut78, 0.25 h
[6] = Induction of singlet oxygen assessed as quantum yields for generation of singlet oxygen by luminescence spectroscopy; assay type: physicochemical
Colon 26 [7] = assay: Phototoxicity against mouse Colon 26 cells assessed as cell survival fraction incubated for 1 hr in dark followed by irradiation with 5 J/cm'-2 light from tunable dye laser at 700 +/- 2 nm measured after 48 hrs by SRB assay; assay type: functional, cell-based; settings: Colon 26, light or radiation study
Colon 26 [8] = assay: Phototoxicity against mouse Colon 26 cells assessed as cell survival fraction incubated for 1 hr in dark followed by irradiation with 10 J/cm'-2 light from tunable dye laser at 700 +/- 2 nm measured after 48 hrs by SRB assay; assay type: functional, cell-based; settings: Colon 26, light or radiation study
Colon 26 [9] = assay: Dark toxicity against mouse Colon 26 cells assessed as cell survival fraction at 1 uM incubated for 1 hr in dark measured after 48 hrs by SRB assay; assay type: cell-based; settings: colon 26, 1 µM
[10] = Therapeutic index, ratio of LD50 for dark toxicity against mouse Colon 26 cells to EC50 for phototoxicity against mouse Colon 26 cells at 5 Jcm'-2 of irradiation with 690 +/- 2 nm light; assay type: cell-based; settings: read-out: Ratio LD50/EC50
[11] = Therapeutic index, ratio of LD50 for dark toxicity against mouse Colon 26 cells to EC50 for phototoxicity against mouse Colon 26 cells at 10 Jcm'-2 of irradiation with 690 +/- 2 nm light; assay type: cell-based; settings: read-out: Ratio LD50/EC50
Colon 26 [12] = assay: Phototoxicity against mouse Colon 26 cells assessed as cell survival fraction incubated for 1 hr in dark followed by irradiation with 5 J/cm'-2 light from tunable dye laser at 690 +/- 2 nm measured after 48 hrs by SRB assay; assay type: functional, cell-based; settings: Colon 26, light or radiation study
Colon 26 [13] = assay: Phototoxicity against mouse Colon 26 cells assessed as cell survival fraction incubated for 1 hr in dark followed by irradiation with 10 J/cm'-2 light from tunable dye laser at 690 +/- 2 nm measured after 48 hrs by SRB assay; assay type: functional, cell-based; settings: Colon 26, light or radiation study
[14] = Therapeutic index, ratio of LD50 for dark toxicity against mouse Colon 26 cells to EC50 for phototoxicity against mouse Colon 26 cells at 1 Jcm'-2 of irradiation with 660 +/- 2 nm nm light; assay type: cell-based; settings: read-out: Ratio LD50/EC50
Colon 26 [15] = assay: Phototoxicity against mouse Colon 26 cells assessed as cell survival fraction incubated for 1 hr in dark followed by irradiation with 1 J/cm'-2 light from tunable dye laser at 660 +/- 2 nm measured after 48 hrs by SRB assay; assay type: functional, cell-based; settings: Colon 26, light or radiation study
Colon 26 [16] = assay: Phototoxicity against mouse Colon 26 cells assessed as cell survival fraction incubated for 1 hr in dark followed by irradiation with 1 J/cm'-2 light from tunable dye laser at 642 +/- 2 nm measured after 48 hrs by SRB assay; assay type: functional, cell-based; settings: Colon 26, light or radiation study

SMILES	CC50 at 1 h [1]	selectivity ratio [2]	selectivity ratio [3]	Drug uptake [4]	Drug uptake [5]	Singlet oxygen quantum yield [6]	EC50 (Colon 26 [7])	EC50 (Colon 26 [8])	Activity (Colon 26 [9])	selectivity ratio [10]	selectivity ratio [11]	EC50 (Colon 26 [12])	EC50 (Colon 26 [13])	selectivity ratio [14]	EC50 (Colon 26 [15])	EC50 (Colon 26 [16])
CN(C)c1ccc2c(-c3ccccc3)c3cc4ccc(=[N+](C)C)cc4cc3[se]c2c1.F[P-](F)(F)(F)(F)F	2000 nM	8.3	11	0.7204	0.683	< 0.05	240 nM	180 nM	Toxic							
CN(C)c1ccc2c(-c3ccccc3)c3cc4ccc(=[N+](C)C)cc4cc3sc2c1.F[P-](F)(F)(F)(F)F	460 nM			1.2	2.153	< 0.05			Toxic	3.3	5.1	140 nM	90 nM			
CN(C)c1ccc2c(-c3ccccc3)c3ccc4cc(=[N+](C)C)ccc4c3[se]c2c1.F[P-](F)(F)(F)(F)F	> 1000 nM			1.38	2.458	0.65			Non-toxic					> 15	64 nM	
CN(C)c1ccc2c(-c3ccccc3)c3ccc4cc(=[N+](C)C)ccc4c3sc2c1.F[P-](F)(F)(F)(F)F				1.77	2.82	0.15			Non-toxic							280 nM
